From patent publication US20060099283A1, “Leaf juice of plectranthus amboinicus for treating cancer and/or tumor” (priority 2004, published 2006)

Columns and labels:
HepG2 = HepG2 hepatocellular carcinoma cell count after treatment; format: cell-based; details: Homo sapiens, 72 h; HepG2, day 3, 50 nM paciltaxel; read-out: inhibiting rate (cell growth)
Protocol: HepG2 and Hep3B cells were cultured in minimum essential medium supplemented with 10% fetal calf serum, 2 mM L-glutamine, 50 IU/mL penicillin, and 50 μg/mL streptomycin.
Cultures were maintained at 37° C. in a humidified atmosphere containing 5% CO2.
(§1) Treatment: In all in vitro experiments, 3% of the leaf juice prepared according to Example 1 was added to the cells after subcultured directly.
Cell count: Total cell counts were made by adding 20 μL of the cell suspension to 20 μL of 0.4% trypan blue, and counted under a phase contrast microscope.
The hepatocellular carcinoma cell lines used in the example are HepG2 and Huh7, and the manipulations of the cell culture and treatment are as described in Example 2. The cells were grouped into a control group (without treatment) and experiment groups treated with 5% of leaf juice, 50 nM paciltaxel, and combining 5% of leaf juice and 50 nM paciltaxel. Each group was repeated six times.

Huh7 = Huh7 hepatocellular carcinoma cell count after treatment; format: cell-based; details: Homo sapiens, Huh-7, 72 h; Huh7, day 3, 50 nM paciltaxel; read-out: inhibiting rate (cell growth)
Description: Cell lines: The following nine human tumor cell lines of different histologic origins were obtained from commercial cell culture collections unless indicated otherwise: HepG2 (haptocellular carcinoma, liver; provided by Dr. C H Huang, National Health Research Institute, Taipei, Taiwan), Hep3B (haptocellular carcinoma, liver; provided by Dr. C H Huang, National Health Research Institute, Taipei, Taiwan), U937 (myeloid leukemia), K562 (chronic myeloid leukemia, bone marrow), Calu-1 (epidermoid carcinoma, lung; provided by Dr. Y C Kuo, National Institute of Traditional Chinese Medicine, Taipei, Taiwan), TL (trophoblast-like cell line, placenta; provided by Dr. C K Ho, Veteran General Hospital, Taipei, Taiwan), Jurket (human lymphoblastoid T cell line), Bowes (human melanoma cell), and Huh7 (hepatocellular carcinoma/ectoderm).
Cultures were maintained at 37° C. in a humidified atmosphere containing 5% CO2. All cell reagents were obtained from Gibco-Invitrogen Co., Ltd (Grand Island, N.Y. U.S.A.) and HyClone (Logan, Utah, U.S.A.).
as §1
Cell count: Total cell counts were made by adding 20 μL of the cell suspension to 20 μL of 0.4% trypan blue, and counted under a phase contrast microscope. […]

`CC(=O)O[C@H]1C(=O)[C@@]2(C)[C@H]([C@H](OC(=O)c3ccccc3)[C@]3(O)C[C@H](OC(=O)[C@H](O)[C@@H](NC(=O)c4ccccc4)c4ccccc4)C(C)=C1C3(C)C)[C@]1(OC(C)=O)CO[C@@H]1C[C@@H]2O` [paciltaxel] showed an inhibition at 0.05 µM (HepG2) of 43.8% and an inhibition at 0.05 µM (Huh7) of 66.1%.
